Results reported in patent US9738668B2.

Key:
[1] = system: Aβ-ABAD interaction; settings: cited from earlier work
[2] = cited from earlier work
[3] = Pharmacokinetic study and BBB penetration, LC-MS/MS of plasma and brain; type: in vivo, C57BL6 mice; settings: mice, intravenous 10 mg/kg
Experimental: Using the validated LCMS/MS method, blood and brain levels of 4, 8, and 15 were measured in male and female C57BL6 mice (8-10 week-old, weighing approximately 25-30 grams). The mice were housed in a room with controlled temperature (23±3° C.) and moisture level (55±15% relative humidity) and exposed to a controlled 12 hour light/12 hour dark cycle. They were allowed to access to food and water ad libitum. Mice were fasted for 6 hours with free access to water prior to the pharmacokinetic study. To determine the time course of compounds 4, 8, and 15 action in the brain, the plasma pharmacokinetics and BBB penetration capability of the inhibitors were investigated. In these experiments, compounds 4, 8, and 15 were administered to mice by intravenous injection at a dosage of 10 mg/kg. Blood and brain samples were collected from mouse at each time point (2, 5, 10, 30, 60, 120, 240, 360, 720, 1440, and 2880 minutes), a total of 11 time points. For plasma measurements, blood (approximately 500-800 μl) was collected via cardiac-puncture into tubes containing sodium heparin anti-coagulant. Plasma was separated via centrifugation (4° C., 3500 rpm, 10 minutes) and stored in −80° C. freezer. For qualitative confirmations of these compounds in CSF, samples were collected at 2 time points (240 and 1440 min) from five animals at each time point. At the time of measurement, frozen plasma samples were thawed at room temperature and vortexed thoroughly. The following quantities were estimated using non-compartmental calculations performed with WINNONLIN 5.2 (Pharsight, Sunnyvale, Calif.): the area under the plasma concentration-time curve during the period of observation (AUC0-τ); the area under the plasma concentration-time curve from zero to infinity (AUC0-∞); the maximum plasma concentration (Cmax); the time to reach Cmax (Tmax); and the half-life (t1/2).
The LC-MS/MS method described above was used for the determination of 4, 8 and 15 in plasma, brain, and CSF for pharmacokinetic study. Based on the initial concentration data, the pharmacokinetic parameters including the area under the plasma concentration-time curve during the period of observation (AUC0-t), the area under the plasma concentration-time curve from zero to infinity (AUC0-∞) the maximum plasma concentration (Cmax) the time to reach Cmax (Tmax) and the half-life (t1/2) are shown in Table 8.

[4] = system: ABAD; type: biochemical
Experimental: Before the assay, all the assay components except SAAC were pre-incubated for 5 minutes, and the reaction started with the addition of SAAC into the reaction mix. The reaction was carried out for a total 6 minutes at room temperature under steady-state conditions, and the decrease of NADH absorbance at 340 nm was determined every 10 seconds. Kinetic data were analyzed by PRISM (Scitech, San Diego, Calif.) to determine IC50 values and Ki. One unit of enzyme activity was defined as that which converted 1.0 μmol of substrate to product per minute.

[5] = system: SK-N-SH cells; assay: ATP levels in Aβ-treated cells; type: cell-based
Experimental: Forty-eight hour later, ATP levels (μmol mg^−1 protein) were measured in cell lysates.
To determine the effect of ABAD inhibitors on Aβ-induced impairment in energy metabolism, ATP levels were measured. […] ATP levels were measured in the cell lysates. […] Therefore, ABAD inhibitors can block mitochondrial dysfunction mediated by Aβ.

[6] = system: brain mitochondria; assay: Mitochondria swelling assay in response to Ca2+; design: species or system mice
Experimental: Brain from mice without white matter was used for mitochondrial isolation. Brain was homogenized in 9 ml of ice-cold EB buffer (1 mmol EDTA, 1-6 mg/ml BSA) using a Dounce homogenizer until no particles could be seen. Homogenates were centrifuged at 1300×g for 5 minutes. Supernatant from this fraction was carefully laid on top of a 15% PERCOLL solution (10 ml) and then centrifuged at 16000 RPM for 10 minutes. The pellet was carefully mixed with 9 ml of mitochondrial buffer (4.098% D-mannitol, 2.56% sucrose, 0.034% K2HPO4, pH 7.3-7.4) and 200 μl of 1% digitonin. After 5 minutes incubation on ice, the mixture was centrifuged at 8000 RPM for 10 minutes. Mitochondrial pellet was washed once with mitochondrial buffer. Subsequently, the mitochondrial pellet was resuspended in 100 μl of mitochondrial buffer and was used for further experiments.
A proper amount of mitochondria was resuspended into 1 ml swelling assay buffer (150 mM KCl, 2 mM KH2PO4, 10 mM HEPES, pH 7.4) and energized by 1 mM glutamate and 1 mM malate. Calcium at varying concentrations was added into the assay buffer to trigger mitochondrial swelling. Mitochondrial permeability transition was determined by studying the rate of change in absorbance at 540 nm via a spectrophotometer.
Given that the Compounds 4, 8 and 15 could inhibit ABAD activity, it was determined whether these same compounds could decrease mitochondrial permeability transition pore (mPTP) formation.

[7] = Solubility in solvents during LC method development; type: physicochemical
Experimental: During the development of a detection method for analytes 4, 8 and 15, multiple solvents were tested to find the optimal mobile phase. […] Acetonitrile was selected for better peak shape and compatibility with serum/brain protein precipitation. Compounds 8 and 15 were chosen as IS, because of their structural similarity. Selected reaction monitoring (SRM) acquisitions were used for sensitivity and extended dynamic range. The cone voltage and collision energy were optimized for 4, 8 and 15 and the IS by continuously infusing a mixture of the two. The optimum cone voltage was 30V.

[8] = system: SK-N-SH cells; assay: Mitochondrial cytochrome c oxidase (CcO) activity in Aβ-treated cells; type: cell-based
Experimental: SK-NSH cells were treated with 5 μM oligomer Aβ plus 1 μM of ABAD inhibitor; inhibitor alone; vehicle (VEH) without inhibitor; or Aβ alone. Forty-eight hour later, CcO activity (μmol protein mg^−1 min^−1) was measured in cell lysates.
The CcO activity was measured according to known methods (Du, et al. (2008) Nat. Med. 14:1097-105) with a cytochrome c oxidase kit (Sigma). In brief, SK-N-SH cells were incubated with ABAD inhibitor and oligomer Aβ for 48 hours. After washing the cells twice with PBS, the cells were collected and concentration was determined by the Bradford method. A suitable volume of cells and enzyme solution was added to 475 μl assay buffer. The reaction was triggered by the addition of 25 μl freshly prepared ferrocytochrome C substrate solution into the cuvette. Changes in OD550 nm were recorded immediately with an Amersham Biosciences ULTROSPECT 3100 pro spectrophotometer.
To assess the effect of ABAD inhibitor on Aft-induced mitochondrial respiratory function, CcO activity was determined.

fentizole
inhibitory activity [1]: exhibit inhibitory activity

Nc1c(/N=N/c2ccc(-c3ccc(/N=N/c4cc(S(=O)(=O)O)c5ccccc5c4N)cc3)cc2)cc(S(=O)(=O)O)c2ccccc12 [Congo red]
inhibition of Aβ binding [1]: 100%
cell permeability [2]: poor cell permeability

thioflavin T
inhibition of Aβ binding [1]: ~20%

COc1ccc2nc(N[C@@H](c3ccc(F)cc3)P(=O)(OC)OC)sc2c1 [Compound 15, Dimethyl ((4-fluorophenyl) ((6-methoxybenzo[d]thiazol-2-yl)amino)methyl) phosphonate]
t1/2 ([3]; Brain): 11.4 h
t1/2 ([3]; Plasma): 6.1 h
inhibition of SAAC reduction by ABAD ([4]; at 10 μM): did not inhibit
inhibitory effect on SAAC reduction by ABAD ([4]; at 100 or 400 μM): slight inhibitory effect
ATP levels ([5]; 5 μM Aβ1-42 plus 1 μM inhibitor): rescued ATP levels
ATP levels, inhibitor alone ([5]; inhibitor without Aβ): comparable to cells treated with vehicle alone
calcium-mediated mitochondrial swelling ([6]; with calcium): antagonized calcium-mediated mitochondrial swelling
mitochondrial swelling without calcium ([6]; without calcium): did not affect mitochondrial swelling
solubility in methanol or acetonitrile ([7]; methanol or acetonitrile): dissolved readily
solubility in water ([7]; water): dissolved partially
CcO activity, inhibitor alone ([8]; 1 μM inhibitor without Aβ): had no effect on CcO activity
CcO activity ([8]; 5 μM oligomer Aβ1-42 plus 1 μM inhibitor, 48 hours): reversed the Aβ-mediated decrease of CcO activity
